Molecular target: USP9X (Homo sapiens (Human), UniProt Q93008)
Assay: USP9X enzyme activity assay, ubiquitin-rhodamine110 substrate
Conditions: for IC50: read-out: USP9X IC50/UM; for IC50 / USP9X IC50/UM: Table 8; for reduction of USP9X activity: higher concentrations of compound (>10 μM)
Procedure: The inhibition property of compound Compound 1A was evaluated in assays measuring the ability of USP9X to catalyze the hydrolysis of the amide bond between the C terminal carboxylate of ubiquitin and rhodamine110 of the fluorogenic substrate ubiquitin-rhodamine 110. To the wells of a 96 well reaction plate was added 12.5 μL USP9X solution (1.3 nM) in assay buffer (100 mM NaCl, 1 mM DTT, 0.1% bovine serum albumin, 0.05% Tween 20, 50 mM Tris, pH 7.5). 12.5 μL of Compound 1A in assay buffer (4×final concentration) was added to the wells containing the USP9X solution, and the solution was gently mixed by pipetting up and down several times. The plate was sealed and incubated at room temperature for 20 minutes.
Then 25 μL of the 1 μM substrate (ubiquitin-rhodaminel10) solution was added in assay buffer. The final substrate concentration was 0.5 μM. […] The slope for the rate of change of the fluorescence was determined and plotted vs the concentration of Compound 1A.
USP9X enzyme assays were set up in a 96 well plate to assess the abilities of Compound 3A and Compound 4A to inhibit the activity of USP9X, respectively. Ubiquitin-rhodamine110 was used as the substrate and ubiquitin aldehyde was included in the assay as a positive control.
Purified recombinant USPx9 (R&D Systems) in 50 mM Tris buffer pH 7.5, 1 mM DTT, 100 mM NaCl, 0.05% Tween 20 and 0/1% BSA is used at a concentration of 0.325 nM with 0.5 μM ubiquitin-rhodamine (R&D Systems).

Sequence of USP9X (Q93008 whole entry): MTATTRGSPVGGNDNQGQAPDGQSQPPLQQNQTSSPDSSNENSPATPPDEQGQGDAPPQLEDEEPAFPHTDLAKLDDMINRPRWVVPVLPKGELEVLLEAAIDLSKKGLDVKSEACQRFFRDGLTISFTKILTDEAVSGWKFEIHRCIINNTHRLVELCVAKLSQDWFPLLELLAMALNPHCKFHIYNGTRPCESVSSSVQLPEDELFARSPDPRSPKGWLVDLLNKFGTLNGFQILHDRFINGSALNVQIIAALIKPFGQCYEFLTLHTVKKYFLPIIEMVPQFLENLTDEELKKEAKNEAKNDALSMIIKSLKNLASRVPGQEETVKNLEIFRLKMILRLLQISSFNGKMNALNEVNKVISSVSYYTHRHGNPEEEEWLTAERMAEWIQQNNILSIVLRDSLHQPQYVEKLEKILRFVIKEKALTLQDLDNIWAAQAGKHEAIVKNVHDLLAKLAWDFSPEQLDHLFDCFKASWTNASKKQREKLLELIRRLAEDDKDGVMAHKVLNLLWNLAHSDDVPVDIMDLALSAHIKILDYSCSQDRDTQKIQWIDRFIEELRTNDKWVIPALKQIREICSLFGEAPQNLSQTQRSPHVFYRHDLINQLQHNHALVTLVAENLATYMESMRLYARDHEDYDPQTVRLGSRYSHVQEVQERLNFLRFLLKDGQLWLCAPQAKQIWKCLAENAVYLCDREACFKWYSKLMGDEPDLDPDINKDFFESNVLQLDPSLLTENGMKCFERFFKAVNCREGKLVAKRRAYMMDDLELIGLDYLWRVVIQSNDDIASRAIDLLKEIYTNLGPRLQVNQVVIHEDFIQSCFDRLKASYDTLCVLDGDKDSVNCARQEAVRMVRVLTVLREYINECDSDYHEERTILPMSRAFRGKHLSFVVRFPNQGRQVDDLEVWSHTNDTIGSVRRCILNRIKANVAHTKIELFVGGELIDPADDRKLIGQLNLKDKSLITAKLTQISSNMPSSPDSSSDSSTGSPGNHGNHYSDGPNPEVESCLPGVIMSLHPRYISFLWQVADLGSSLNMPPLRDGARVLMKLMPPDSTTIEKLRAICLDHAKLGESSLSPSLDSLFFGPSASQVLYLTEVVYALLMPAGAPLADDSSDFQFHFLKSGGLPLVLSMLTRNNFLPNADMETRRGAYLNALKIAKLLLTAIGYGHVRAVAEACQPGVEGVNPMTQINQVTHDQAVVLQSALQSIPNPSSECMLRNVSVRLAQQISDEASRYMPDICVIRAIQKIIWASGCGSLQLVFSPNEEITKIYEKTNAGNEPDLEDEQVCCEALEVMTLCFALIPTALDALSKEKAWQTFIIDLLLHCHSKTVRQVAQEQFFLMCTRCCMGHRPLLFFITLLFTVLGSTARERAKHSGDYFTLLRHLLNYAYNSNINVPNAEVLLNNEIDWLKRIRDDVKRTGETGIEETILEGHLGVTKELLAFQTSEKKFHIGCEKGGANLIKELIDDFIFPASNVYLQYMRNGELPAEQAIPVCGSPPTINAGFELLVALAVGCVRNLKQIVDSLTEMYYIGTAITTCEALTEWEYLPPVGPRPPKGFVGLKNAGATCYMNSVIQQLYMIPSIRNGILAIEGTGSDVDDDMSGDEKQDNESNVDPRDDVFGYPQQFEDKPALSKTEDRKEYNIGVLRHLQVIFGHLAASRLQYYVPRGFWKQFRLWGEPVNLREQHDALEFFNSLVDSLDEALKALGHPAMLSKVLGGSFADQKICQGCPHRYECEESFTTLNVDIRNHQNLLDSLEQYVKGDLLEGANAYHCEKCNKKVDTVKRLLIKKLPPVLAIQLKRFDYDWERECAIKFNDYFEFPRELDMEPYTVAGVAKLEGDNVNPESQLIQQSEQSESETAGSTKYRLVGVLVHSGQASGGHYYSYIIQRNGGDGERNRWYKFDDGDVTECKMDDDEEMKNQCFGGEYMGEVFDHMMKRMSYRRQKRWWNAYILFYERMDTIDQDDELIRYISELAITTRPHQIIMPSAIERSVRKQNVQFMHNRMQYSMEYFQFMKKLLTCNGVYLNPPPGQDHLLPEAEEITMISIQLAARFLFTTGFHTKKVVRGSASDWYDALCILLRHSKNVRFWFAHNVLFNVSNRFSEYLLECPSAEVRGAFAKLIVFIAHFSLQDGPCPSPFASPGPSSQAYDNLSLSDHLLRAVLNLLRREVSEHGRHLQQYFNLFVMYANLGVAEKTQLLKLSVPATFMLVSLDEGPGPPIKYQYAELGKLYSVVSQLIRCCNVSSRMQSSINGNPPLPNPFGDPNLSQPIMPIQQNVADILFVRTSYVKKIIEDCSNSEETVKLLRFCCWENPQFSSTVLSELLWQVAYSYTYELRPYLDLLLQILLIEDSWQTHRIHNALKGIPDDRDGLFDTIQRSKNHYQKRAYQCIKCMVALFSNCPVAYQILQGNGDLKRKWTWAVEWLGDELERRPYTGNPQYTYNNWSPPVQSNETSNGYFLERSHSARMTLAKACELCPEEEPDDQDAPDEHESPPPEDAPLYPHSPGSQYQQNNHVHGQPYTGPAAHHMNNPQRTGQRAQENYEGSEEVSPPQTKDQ

Row | SMILES | IC50 [nM] | also measured
1 | CN1CCOc2ccc(cc2)C(=O)NCc2ccc(F)c(c2)C(=O)N[C@@H](CC(C)(C)C)C(=O)Nc2ccc(cc2)CCN(C)C(=O)CCC(C)(C)CCC1=O [Compound 1A, (S)-5^4-fluoro-14,18,18,22-tetramethyl-S-neopentyl-25-oxa-3,7,10,14,22-pentaaza-1,11(1,4),5(1,3)-tribenzenacyclopentacosaphane-2,6,9,15,21-pentaone] |  | effect on USP9X activity (ubiquitin-rhodamine110 substrate): partially inhibited
2 | COCCNC(=O)[C@@H]1Cc2ccc(cc2)NC(=O)[C@H](CC(C)(C)C)NC(=O)c2cccc(c2)CNC(=O)c2ccc(cc2)OCCNC(=O)CC(C)(C)CC(=O)N1 [Compound 3A] |  | reduction of USP9X activity: approximately 60%
3 | CC(C)(C)C[C@@H]1NC(=O)c2cccc(c2)CNC(=O)c2ccc(cc2)OCCNC(=O)CCCCC(=O)N[C@H](C(=O)O)Cc2ccc(cc2)NC1=O [Compound 4A] |  | reduction of USP9X activity: approximately 60%
4 | CNCCOc1ccc(C(=O)NCc2cccc(C(=O)N[C@@H](CC(C)(C)C)C(=O)Nc3ccc(CN4CCCC4)cc3)c2)cc1 [Compound 4] | 54 | 
5 | CN(C)CCOc1ccc(C(=O)NCc2cccc(C(=O)N[C@@H](CC(C)(C)C)C(=O)Nc3ccc(CN4CCCC4)cc3)c2)cc1 [Compound 5] | 55 | 
6 | CNCCOc1ccc(C(=O)NCc2cccc(C(=O)N[C@@H](CC(C)(C)C)C(=O)Nc3ccc(CCc4ccccn4)cc3)c2)cc1 [Compound 6] | 700 | 
7 | CNCCOc1ccc(C(=O)NCc2cccc(C(=O)N[C@@H](CC(C)(C)C)C(=O)Nc3cccc(Cn4cccn4)c3)c2)cc1 [Compound 8] | 1100 | 
8 | CNCCOc1ccc(C(=O)NCc2cccc(C(=O)N[C@@H](CC(C)(C)C)C(=O)Nc3ccc(Cn4ccnc4)cc3)c2)cc1 [Compound 10] | 91 | 
9 | CN(C)CCOc1ccc(C(=O)NCc2cccc(C(=O)N[C@@H](CC(C)(C)C)C(=O)Nc3ccc(Cn4ccnc4)cc3)c2)cc1 [Compound 11] | 80 | 
10 | CN(C)CCOc1ccc(C(=O)NCc2cccc(C(=O)N[C@@H](CC(C)(C)C)C(=O)Nc3ccc(CCN4CCOCC4)cc3)c2)cc1 [Compound 14] | 120 | 
11 | CN(C)CCOc1ccc(C(=O)NCc2cccc(C(=O)N[C@@H](CC(C)(C)C)C(=O)Nc3ccc4nccn4c3)c2)cc1 [Compound 20] | 63 | 
12 | COc1ccc(NC(=O)[C@H](CC(C)(C)C)NC(=O)c2cccc(CNC(=O)c3ccc(OCCN(C)C)cc3)c2)cc1 [Compound 23] | 240 | 
13 | CN(C)CCOc1ccc(C(=O)NCc2cccc(C(=O)N[C@@H](CC(C)(C)C)C(=O)N(C)Cc3ccccc3)c2)cc1 [Compound 26] |  | USP9X IC50/UM: >50 UM
14 | CN(C)CCOc1ccc(C(=O)NCc2cccc(C(=O)N[C@@H](CC(C)(C)C)C(=O)NCc3ccccc3F)c2)cc1 [Compound 27] |  | USP9X IC50/UM: >50 UM
15 | CNCCOc1ccc(C(=O)NCc2cccc(C(=O)N[C@@H](CC(C)(C)C)C(=O)Nc3ccc(CCC(=O)O)cc3)c2)cc1 [Compound 30] |  | USP9X IC50/UM: >50 UM
16 | CNCCOc1ccc(C(=O)NCc2cccc(C(=O)N[C@@H](CC(C)C)C(=O)Nc3ccc(CCC(=O)O)cc3)c2)cc1 [Compound 32] |  | USP9X IC50/UM: >50 UM
17 | CNCCOc1ccc(C(=O)NCc2cccc(C(=O)N[C@@H](C)C(=O)Nc3ccc(CCC(=O)O)cc3)c2)cc1 [Compound 33] |  | USP9X IC50/UM: >50 UM
18 | CNCCOc1ccc(C(=O)NCc2cccc(C(=O)N3CCCC3C(=O)Nc3ccc(CCC(=O)O)cc3)c2)cc1 (centres unmarked) [Compound 36] |  | USP9X IC50/UM: >50 UM
19 | CNCCOc1ccc(C(=O)NCc2cccc(C(=O)N[C@@H](CC3CCCCC3)C(=O)Nc3ccc(CCC(=O)O)cc3)c2)cc1 [Compound 37] |  | USP9X IC50/UM: >50 UM
20 | CNC(=O)CCc1ccc(NC(=O)[C@H](CC(C)(C)C)NC(=O)c2cccc(CNC(=O)c3ccccc3)c2)cc1 [Compound 45] | 2100 | 
21 | COc1ccc(C(=O)NCc2cccc(C(=O)N[C@@H](CC(C)(C)C)C(=O)Nc3ccc(CCC(=O)O)cc3)c2)cc1 [Compound 55] | 4700 | 
22 | CC(C)(C)C[C@H](NC(=O)c1cc(CNC(=O)c2ccccc2)ccc1F)C(=O)Nc1ccc(CCC(=O)O)cc1 [Compound 58] | 4900 | 
23 | CC(=O)NCc1ccc(F)c(C(=O)N[C@@H](CC(C)(C)C)C(=O)Nc2ccc(CCC(=O)O)cc2)c1 [Compound 60] | 13000 | 
24 | Cc1ccc(NC(=O)[C@H](CC(C)(C)C)NC(=O)c2cccc(CNC(=O)c3ccc(OCCO)cc3)c2)cc1 [Compound 62] | 6900 | 
25 | CC(C)(C)CC(=O)NCCc1ccc(NC(=O)[C@H](CC(C)(C)C)NC(=O)c2cccc(CNC(=O)c3ccc(OCCO)cc3)c2)cc1 [Compound 65] | 600 | 
26 | CC(C)(C)C[C@H](NC(=O)c1cccc(CNC(=O)c2ccc(OCCNC(=O)CC(C)(C)CC(=O)NCCc3ccc(N)cc3)cc2)c1)C(=O)O [Compound 66] |  | USP9X IC50/UM: >50 UM
27 | CC(=O)Nc1ccc(CCNC(=O)CC(C)(C)CC(=O)NCCOc2ccc(C(=O)NCc3cccc(C(=O)N[C@@H](CC(C)(C)C)C(=O)O)c3)cc2)cc1 [Compound 67] |  | USP9X IC50/UM: >50 UM
28 | CNC(=O)[C@H](CC(C)(C)C)NC(=O)c1cccc(CNC(=O)c2ccc(OCCNC(=O)CC(C)(C)CC(=O)NCCc3ccc(NC(C)=O)cc3)cc2)c1 [Compound 68] |  | USP9X IC50/UM: >50 UM
29 | CC(C)(C)C[C@H](N)C(=O)Nc1ccc(CCNC(=O)CC(C)(C)CC(=O)NCCOc2ccc(C(=O)NCc3cccc(C(=O)O)c3)cc2)cc1 [Compound 69] |  | USP9X IC50/UM: >50 UM
30 | CC(=O)N[C@@H](CC(C)(C)C)C(=O)Nc1ccc(CCNC(=O)CC(C)(C)CC(=O)NCCOc2ccc(C(=O)NCc3cccc(C(=O)O)c3)cc2)cc1 [Compound 70] |  | USP9X IC50/UM: >50 UM

Further lines, with some results ahead:

Row | IC50 [nM] | SMILES | also measured
31 | 530 | CNCCOc1ccc(C(=O)NCc2cccc(C(=O)N[C@@H](CC(C)(C)C)C(=O)Nc3ccc(CC(NC(=O)CC(C)(C)CC(=O)O)C(=O)OC)cc3)c2)cc1 (some centres unmarked) [Compound 1] | 
32 | 180 | CNCCOc1ccc(C(=O)NCc2cccc(C(=O)N[C@@H](CC(C)(C)C)C(=O)Nc3ccc(CCNC(=O)CC(C)(C)CC(=O)O)cc3)c2)cc1 [Compound 2] | 
33 | 280 | CNCCOc1ccc(C(=O)NCc2cccc(C(=O)N[C@@H](CC(C)(C)C)C(=O)Nc3ccc(CCC(=O)O)cc3)c2)cc1 [Compound 3] | 
34 | 590 | CN(C)CCOc1ccc(C(=O)NCc2cccc(C(=O)N[C@@H](CC(C)(C)C)C(=O)Nc3ccc(CCc4ccccn4)cc3)c2)cc1 [Compound 7] | 
35 | 150 | CN(C)CCOc1ccc(C(=O)NCc2cccc(C(=O)N[C@@H](CC(C)(C)C)C(=O)Nc3cccc(Cn4cccn4)c3)c2)cc1 [Compound 9] | 
36 | 1300 | CNCCOc1ccc(C(=O)NCc2cccc(C(=O)N[C@@H](CC(C)(C)C)C(=O)Nc3ccc(CC(F)(F)F)cc3)c2)cc1 [Compound 12] | 
37 | 44 | CN(C)CCOc1ccc(C(=O)NCc2cccc(C(=O)N[C@@H](CC(C)(C)C)C(=O)Nc3ccc(CCN(C)C)cc3)c2)cc1 [Compound 13] | 
38 | 23000 | CN(C)CCNC(=O)[C@H](CC(C)(C)C)NC(=O)c1cccc(CNC(=O)c2ccc(OCCN(C)C)cc2)c1 [Compound 15] | 
39 | 18000 | CN(C)CCCNC(=O)[C@H](CC(C)(C)C)NC(=O)c1cccc(CNC(=O)c2ccc(OCCN(C)C)cc2)c1 [Compound 16] | 
40 | 8000 | CN(C)CCOc1ccc(C(=O)NCc2cccc(C(=O)N[C@@H](CC(C)(C)C)C(=O)NCCN3CCCC3)c2)cc1 [Compound 19] | 
41 | 420 | Cc1ccc(NC(=O)[C@H](CC(C)(C)C)NC(=O)c2cccc(CNC(=O)c3ccc(OCCN(C)C)cc3)c2)cc1 [Compound 22] | 
42 | 66 | COC(=O)c1cc(NC(=O)[C@H](CC(C)(C)C)NC(=O)c2cccc(CNC(=O)c3ccc(OCCN(C)C)cc3)c2)ccc1C [Compound 24] | 
43 | 68 | COC(=O)c1cccc(NC(=O)[C@H](CC(C)(C)C)NC(=O)c2cccc(CNC(=O)c3ccc(OCCN(C)C)cc3)c2)c1 [Compound 25] | 
44 | 32000 | CN(C)CCOc1ccc(C(=O)NCc2cccc(C(=O)N[C@@H](CC(C)(C)C)C(=O)NCc3ccccn3)c2)cc1 [Compound 28] | 
45 | 6000 | CNCCOc1ccc(C(=O)NCc2cccc(C(=O)N[C@@H](CC(C)C)C(=O)Nc3ccc(CCC(=O)O)cc3)c2)cc1 [Compound 31] | 
46 | 7000 | CNCCOc1ccc(C(=O)NCc2cccc(C(=O)N3CCCC3C(=O)Nc3ccc(CCC(=O)O)cc3)c2)cc1 (centres unmarked) [Compound 35] | 
47 | 90 | CNC(=O)CCc1ccc(NC(=O)[C@H](CC(C)(C)C)NC(=O)c2cc(CNC(=O)c3ccc(OCCN(C)C)cc3)ccc2F)cc1 [Compound 41] | 
48 | 1300 | CNC(=O)CCc1ccc(NC(=O)[C@H](CC(C)(C)C)NC(=O)c2cccc(CNC(=O)c3ccc(OC)cc3)c2)cc1 [Compound 42] | 
49 | 760 | CNC(=O)CCc1ccc(NC(=O)[C@H](CC(C)(C)C)NC(=O)c2cc(CNC(=O)c3ccc(OC)cc3)ccc2F)cc1 [Compound 43] | 
50 | 240 | COc1ccc(C(=O)NCc2cccc(C(=O)N[C@@H](CC(C)(C)C)C(=O)Nc3ccc(CCN(C)C)cc3)c2)cc1 [Compound 44] | 
51 | 320 | CN(C)CCc1ccc(NC(=O)[C@H](CC(C)(C)C)NC(=O)c2cccc(CNC(=O)c3ccccc3)c2)cc1 [Compound 47] | 
52 | 8900 | CNC(=O)CCc1ccc(NC(=O)[C@H](CC(C)(C)C)NC(=O)c2cccc(CNC(C)=O)c2)cc1 [Compound 48] | 
53 | 5000 | CNC(=O)CCc1ccc(NC(=O)[C@H](CC(C)(C)C)NC(=O)c2cc(CNC(C)=O)ccc2F)cc1 [Compound 49] | 
54 | 2300 | CC(=O)NCc1cccc(C(=O)N[C@@H](CC(C)(C)C)C(=O)Nc2ccc(CCN(C)C)cc2)c1 [Compound 50] | 
55 | 360 | CNCCOc1ccc(C(=O)NCc2ccc(F)c(C(=O)N[C@@H](CC(C)(C)C)C(=O)Nc3ccc(CCC(=O)O)cc3)c2)cc1 [Compound 53] | 
56 | 7000 | CC(C)(C)C[C@H](NC(=O)c1cccc(CNC(=O)c2ccccc2)c1)C(=O)Nc1ccc(CCC(=O)O)cc1 [Compound 57] | 
57 | 5800 | CC(C)(C)C[C@H](NC(=O)c1cccc(CNC(=O)c2ccc(OCCO)cc2)c1)C(=O)Nc1ccccc1 [Compound 61] | 
58 | 220 | CC(C)(C)C[C@H](NC(=O)c1cccc(CNC(=O)c2ccc(OCCO)cc2)c1)C(=O)Nc1ccc(CCN)cc1 [Compound 63] | 
59 | 650 | CC(=O)NCCc1ccc(NC(=O)[C@H](CC(C)(C)C)NC(=O)c2cccc(CNC(=O)c3ccc(OCCO)cc3)c2)cc1 [Compound 64] | 
